Key:
Type in all cases: biochemical
hDDAH-1 [1] = target: T1, hDDAH-1 (Homo sapiens (Human), UniProt O94760); assay: Determination of the Ki value (plate-reader assay); conditions: five NMMA concentrations (50-1250 μM), recombinant hDDAH-1; determined at least twice
Procedure: The Ki value was determined as described for the IC50 value, with the difference that five different NMMA concentrations (50, 100, 300, 750 and 1250 μM) were used. The incubations were carried out such that each NMMA concentration was in each case incubated twice with each of the five inhibitor concentrations. On top of this, incubations using the different NMMA concentrations were carried out without added inhibitor.
For each inhibitor concentration, using SigmaPlot 8.0 (SPSS Inc., Chicago, USA) the respective apparent Km value and Vmax were determined. Via secondary plotting of the inhibitor concentrations versus Km/Vmax the Ki value was determined by extrapolation of the least-squares lines onto the abscissa.
Derivatisation was carried out on particularly heat-stable 96-well microtiter plates. 200 μl of the Colder reagent was added to the samples (150 μl) and to prevent evaporation, the plate was closed with a heat-stable adhesive film (Nunc, Wiesbaden, Germany). Colour formation then took place in the drying oven at 95° C. for 15-20 minutes. Before photometric measurements were taken, there was a wait until the plate had reached room temperature and then the colour intensity at 540.5 nm (Carry 50 microplate reader, Varian, Darmstadt, Germany) was measured. Measurement took place during 20 minutes since the reaction product is not stable (Knipp and Vasak 2000).

hDDAH-1 [2] = target: T1, hDDAH-1; assay: Determination of the IC50 value (plate-reader assay); conditions: NMMA 300 μM, 4 μg recombinant hDDAH-1, 30 min 37° C.; determined at least twice
Procedure: The samples for the plate-reader assay were incubated directly on a 96-well microtiter plate. An incubation mixture consisted of 150 μl of 50 mM potassium phosphate buffer pH 7.4 with NMMA in a final concentration of 300 μM. The inhibitor was added in five different concentrations and the reaction was started by adding 4 μg of recombinant hDDAH-1. In addition, two mixtures without added inhibitor were incubated. The plate was closed with a lid and incubated for 30 minutes on a plate incubator (shaker DTS-4, LTF-Labortechnik GmbH, Wasserburg, Germany) at 37° C. The reactions were stopped using 200 μl of the Colder reagent and the citrulline that had formed was derivatised (see derivatisation for plate-reader assay). The IC50 value was then calculated by means of SigmaPlot 8.0 (SPSS Chicago, USA). Derivatisation was carried out on particularly heat-stable 96-well microtiter plates. 200 μl of the Colder reagent was added to the samples (150 μl) and to prevent evaporation, the plate was closed with a heat-stable adhesive film (Nunc, Wiesbaden, Germany). Colour formation then took place in the drying oven at 95° C. for 15-20 minutes. Before photometric measurements were taken, there was a wait until the plate had reached room temperature and then the colour intensity at 540.5 nm (Carry 50 microplate reader, Varian, Darmstadt, Germany) was measured.

hDDAH-1 [3] = target: T1, hDDAH-1; assay: In vitro hDDAH-1 assay (HPLC), inhibition at 1 mM inhibitor; conditions: inhibitor 1 mM, NMMA 200 μM, 2 μg hDDAH-1, 30 min 37° C.; MV±SD of at least four incubations
Procedure: This assay was used to determine the inhibiting effect of the inhibitors in a concentration of 1 mM. A standard incubation mixture consisted of 75 μl of 50 mM potassium phosphate buffer pH 7.4 and contained NMMA in a concentration of 200 μM. The inhibitors were used in final concentrations of 1 mM. By adding 2 μg of hDDAH-1, the reaction was started and the samples were incubated for 30 minutes at 37° C. in, a shaking water bath. The reaction was then stopped by adding 75 μl of acetonitrile, the samples were shaken for 5′ minutes and centrifuged (12,000 g, 5 min). The supernatant was added to the HPLC.
In addition, three incubations without added inhibitor were carried out in each case and worked up as specified above. The L-citrulline concentration detected in the samples was set at 100% and the amount of L-citrulline formed in the samples with added inhibitor was referred to this value.
For analysing the samples of the in vitro hDDAH-1 assay (HPLC), o-PA pre-column derivatisation was used with subsequent fluorescence detection of the amino acids. • HPLC plant: Waters Autosampler 717plus, Waters 600 Controller, Waters 600 Pump, Waters Fluorescence Detector 470 and EZChrom Elite Client/Server Measurement and evaluation software (version 2.8.3) • Stationary phase: NovaPak RP-18 column 4 μm (4×150 mm, VDS Optilab) pre-column: Phenomenex C18 (4×3.0 mm) • Temperature: 30° C.
• Detection: Fluorescence: λex: 338 nm; 425 nm. • Injection volume: 10 μl • Derivat. reagent: 50 mg o-PA dissolved in 1 ml of methanol • +9 ml 0.2 M of potassium borate buffer pH 9.4 • +53 μl 2-mercaptoethanol • Derivatisation: The auto sampler was programmed such that 10 μl of the sample were mixed with 14 μl of the derivatisation reagent and could react for 3 minutes at room, temperature prior to injection. Retention times: • L-citrulline 12.2±0.3 min • NMMA 15.8±0.4 min • Methylamine 23.4±0.1 min

T1 sequence (O94760 whole entry): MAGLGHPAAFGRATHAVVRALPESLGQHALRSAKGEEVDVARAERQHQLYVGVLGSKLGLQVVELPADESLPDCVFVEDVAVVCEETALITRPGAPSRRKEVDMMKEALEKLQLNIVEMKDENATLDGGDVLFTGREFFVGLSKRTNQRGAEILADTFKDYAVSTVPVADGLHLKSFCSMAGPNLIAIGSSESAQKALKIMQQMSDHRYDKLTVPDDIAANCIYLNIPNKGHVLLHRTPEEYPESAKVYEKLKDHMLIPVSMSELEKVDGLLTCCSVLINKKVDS

SMILES	Ki (hDDAH-1 [1]) [µM]	IC50 (hDDAH-1 [2]) [µM]	inhibition at 1000 µM (hDDAH-1 [3]) [%]
COCC/N=C(/N)NCCCCN [Substance 3, N-(4-aminobutyl)-N′-(2-methoxyethyl)guanidine bis(trifluoracetate)]	18 ± 6	70 ± 16	80 ± 5
C=CCC(=N)NCCCCN [Substance 5, N-(4′-aminobutyl)but-3-enamidine bis(trifluoracetate)]	–	–	40 ± 6
COCCNC(=N)NCCC[C@H](N)C(=O)O [Substance L-257, N^ω-(2-methoxyethyl)-L-arginine, reference compound]	–	–	89 ± 2

— patent publication US8921421B2, “Inhibitors of dimethylarginine dimethylaminohydrolase” (Christian-Albrechts-Universitaet Zu Kiel, priority 2008, dated 2014)
